Series [1] can be described thus: Metabolic (microsomal) stability assay, human liver microsomes (HLM). It counts as in vitro ADME. The following applies: predicted clearance as percent of liver blood flow, 1 μM. The method in brief: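 LC-MS/MS tracked parent disappearance at 0, 5, 15, 30 and 60 min in NADPH-initiated incubations with 1 mg/mL human microsomal protein and 1 μM compound at 37°C, pH 7.5. First-order fits gave intrinsic clearance, which was scaled up and reported as % QH. NADPH-free controls were also run.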

Series [2] addresses KRAS (G12C)::SOS1 (Homo sapiens (Human), UniProt P01116, C118S/C51S/C80L/G12C). Put plainly: KRAS::SOS1 AlphaScreen binding assay, KRAS G12C. A digest of the protocol:
(§1)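 Compounds (up to 100 μM, eleven fivefold dilutions in duplicate) were incubated 30 min with KRAS 1-169 (10 nM, or 7.5 nM for G12C), GST-SOS1 564-1049 (5 nM for G12D/G12C, 10 nM for others) and 10 μM GDP in PBS buffer with BSA and Tween. Donor/acceptor beads were then added for 60 min at room temperature, and IC50 came from a 4-parameter fit of the AlphaScreen signal.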
In general terms: Alpha assays give light when donor and acceptor beads are brought close together.

The target of series [3] is KRAS (G12D)::SOS1 (Homo sapiens (Human), UniProt P01116, G12D). Put plainly: KRAS::SOS1 AlphaScreen binding assay, KRAS G12D. The method in brief: as §1
Chain of KRAS (G12D)::SOS1 (P01116 other isoform, or with tags, fused parts or gaps G12D): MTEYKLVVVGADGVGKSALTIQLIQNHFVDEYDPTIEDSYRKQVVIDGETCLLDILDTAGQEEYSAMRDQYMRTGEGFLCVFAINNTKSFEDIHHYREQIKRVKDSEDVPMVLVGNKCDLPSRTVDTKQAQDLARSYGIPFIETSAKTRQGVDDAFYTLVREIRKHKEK

Chain of KRAS (G12C)::SOS1 (P01116 other isoform, or with tags, fused parts or gaps G12C/C51S/C80L/C118S): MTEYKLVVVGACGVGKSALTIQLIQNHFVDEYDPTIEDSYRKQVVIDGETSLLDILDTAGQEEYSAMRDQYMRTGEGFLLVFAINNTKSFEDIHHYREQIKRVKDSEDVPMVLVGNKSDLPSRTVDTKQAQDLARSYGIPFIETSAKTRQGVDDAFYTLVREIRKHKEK

For the molecule `C[C@H](Oc1cc(N2CCNC(C)(C)C2)nc(-c2noc3c2CCC[C@@]32CCCc3sc(N)c(C#N)c32)n1)[C@@H]1CCCN1C` [II-32], the “HLM QH” value in series [1] was below 24%. The IC50 worked out at 2 nM in series [2] and 1 nM in series [3].
In the same order, the values of `C[C@H](Oc1cc(N2C[C@H]3CN(C)C[C@H]3C2)nc(-c2noc3c2CCC[C@@]32CCCc3sc(N)c(C#N)c32)n1)[C@@H]1CCCN1C` [II-33] are below 24%, 8 nM and 2 nM.
For the molecule `C[C@H](Oc1cc(N2CC3CCC(C2)N3)nc(-c2noc3c2CCC[C@@]32CCCc3sc(N)c(C#N)c32)n1)[C@@H]1CCCN1C` [II-34], in series [1], the “HLM QH” value is on record as below 24%. Further, the IC50 in series [2] was determined as 3 nM; in series [3] it was 1 nM.
`CN[C@H]1CCN(c2cc(O[C@@H](C)[C@@H]3CCCN3C)nc(-c3noc4c3CCC[C@@]43CCCc4sc(N)c(C#N)c43)n2)C1` [II-35]: the “HLM QH” value in series [1] is on record as below 24%. Besides, the values for the IC50 in series [2] and in series [3] were 7 nM and 2 nM, respectively.
In the case of `C[C@@H]1CN(c2cc(O[C@@H](C)[C@@H]3CCCN3C)nc(-c3noc4c3CCC[C@@]43CCCc4sc(N)c(C#N)c43)n2)C[C@H](C)N1` [II-36], the “HLM QH” value in series [1] is below 24%. The figures for the IC50 in series [2] and in series [3] were 2 nM and 1 nM, respectively.
As for `C[C@H](Oc1cc([C@@H]2CCN(C)C2)nc(-c2noc3c2CCC[C@@]32CCCc3sc(N)c(C#N)c32)n1)[C@@H]1CCCN1C` [II-37], the “HLM QH” value in series [1] was below 24%. For the same molecule, the IC50 in series [2] was found to be 3 nM; in series [3], 1 nM.
Take `C[C@H](Oc1cc([C@H]2CCN(C)C2)nc(-c2noc3c2CCC[C@@]32CCCc3sc(N)c(C#N)c32)n1)[C@@H]1CCCN1C` [II-38]: the “HLM QH” value in series [1] is reported as below 24%. The IC50 in series [2] stood at 2 nM; in series [3], 1 nM.
As for `C[C@H](Oc1cc(N2CCN(C)CC2)nc(-c2noc3c2CCC[C@@]32CCCc3sc(N)c(C#N)c32)n1)[C@@H]1CCCN1[C@@H]1CCOC1` [II-39], the “HLM QH” value in series [1] is listed as 52%. Further, the IC50 in series [2] amounted to 6 nM; in series [3], 1 nM.
Take `C[C@H](Oc1cc(N2CCNC3(CCC3)C2)nc(-c2noc3c2CCC[C@@]32CCCc3sc(N)c(C#N)c32)n1)[C@@H]1CCCN1C` [II-40]: in series [1], the “HLM QH” value is given as below 24%. The IC50 was 3 nM in series [2] and 1 nM in series [3].
With `C[C@H](Oc1cc(N2CCNC3(CCCC3)C2)nc(-c2noc3c2CCC[C@@]32CCCc3sc(N)c(C#N)c32)n1)[C@@H]1CCCN1C` [II-41], the “HLM QH” value in series [1] is recorded as below 24%. For the same molecule, the IC50 in series [2] was 9 nM; in series [3] it was 1 nM.
In the same order, the values of `C[C@H](Oc1cc(-c2ccn([C@H]3CCCOC3)n2)nc(-c2noc3c2CCC[C@@]32CCCc3sc(N)c(C#N)c32)n1)[C@@H]1CCCN1C` [II-42] are below 24%, 2 nM and 2 nM.
`C[C@H](Oc1cc(-c2ccn(C[C@@H]3CCCO3)n2)nc(-c2noc3c2CCC[C@@]32CCCc3sc(N)c(C#N)c32)n1)[C@@H]1CCCN1C` [II-43]: the “HLM QH” value in series [1] was below 24%. Also, the IC50 in series [2] amounted to 1 nM; in series [3], 2 nM.
`C[C@H](Oc1cc(C2CCCO2)nc(-c2noc3c2CCC[C@@]32CCCc3sc(N)c(C#N)c32)n1)[C@@H]1CCCN1C` (stereo partly drawn) [II-44]: in series [1], the “HLM QH” value is 31%. Moreover, the IC50 in series [2] and in series [3] was 2 nM each time.
`C[C@H](Oc1nc(-c2noc3c2CCC[C@@]32CCCc3sc(N)c(C#N)c32)cc(N2C[C@H](C)N[C@@H](C)C2)n1)[C@@H]1CCCN1C` [II-46]: the “HLM QH” value in series [1] was 27%. The IC50 in series [2] was 37 nM; in series [3], 1 nM.
In the case of `C[C@H](Oc1cc(N2CC[C@@H](N(C)C)C2)nc(-c2noc3c2CCC[C@@]32CCCc3sc(N)c(C#N)c32)n1)[C@@H]1CCCN1C` [II-47], the “HLM QH” value in series [1] is reported as below 24%. For the same molecule, the IC50 in series [2] came to 4 nM; in series [3], 1 nM.
Regarding `C[C@H](Oc1cc(N2CCC(N(C)C)CC2)nc(-c2noc3c2CCC[C@@]32CCCc3sc(N)c(C#N)c32)n1)[C@@H]1CCCN1C` [II-48], the “HLM QH” value in series [1] is below 24%. The IC50 in series [2] came to 7 nM; in series [3], 1 nM.

One may read the IC50 as the concentration needed to halve the response being measured. Read a high IC50 as a need for much substance.

These data come from US20240174690A1, “ANNULATED 2-AMINO-3-CYANO THIOPHENES AND DERIVATIVES FOR THE TREATMENT OF CANCER” (BOEHRINGER INGELHEIM INTERNATIONAL GMBH, priority 2021, published 2024).
